Assay results reported in patent publication US10654828B2 (NOVARTIS AG, priority 2017, dated 2020).
Like-named read-outs stand apart in the source and are kept apart here.

Key:
FoxO3a = FoxO3a inhibition: GFP-FoxO3a nuclear to cytoplasmic translocation reporter assay; format: cell-based; conditions: U2OS GFP-FoxO3a H212R cells, serum starved overnight, compound 30 minutes, ratio of nuclear to cytosolic GFP intensity, DMSO control 0%, read-out: FoxO AC50
Description: (§1) Phosphorylation of AKT on S473 and FoxO3a nuclear to cytoplasmic translocation were used as readouts of PI3K/Akt/mTOR pathway activation downstream of growth factor signaling.
(§2) Reporter cell line. U2OS GFP-FoxO3a H212R reporter cell line was established by transducing U2OS cells with the retroviral plasmid pLEGFP-C1 containing FoxO3a H212R transgene and selecting for G418 resistant clones.
(§3) Reporter assay. U2OS GFP-FoxO3a H212R cells were plated in 384-well plates at 4000 cells per well in 30 microliters of McCoy's 5 A medium containing 10% FBS. On day 1 the cells were washed with serum free medium and serum starved overnight. On day 2 the cells were treated with different doses of the compounds for 30 minutes, fixed with 4% Paraformaldehyde for 1 hour and stained with Phospho-AKT (Ser473) antibody (Cell Signaling Technology, catalog #4060) overnight at 4 degrees Celsius. After nuclei staining with Hoechst 33342 (Life Technologies, catalog # H3570) the plates were imaged with InCell 2000 (GE Healthcare Bio-Sciences). FoxO3a inhibition activity is calculated as the ratio of nuclear to cytosolic GFP intensity in percent. AKT activation is measured as the total cellular intensity of Phospho-AKT antibody staining in percent. DMSO control is set as 0% activity.

AKT = AKT activation: Phospho-AKT (Ser473) antibody staining in reporter cells; format: cell-based; conditions: U2OS GFP-FoxO3a H212R cells, serum starved overnight, compound 30 minutes, total cellular intensity of Phospho-AKT (Ser473) staining, DMSO control 0%
Description: as §1, §2, §3

Row | Compound | AC50 (FoxO3a; Homo sapiens, U2OS, 0.5 h) [µM] | AC50 (AKT; Homo sapiens, U2OS, 0.5 h) [µM] | AC50 (FoxO3a) [µM] | AC50 (AKT) [µM]
1 | Cc1cc(C(N)=O)nn1-c1ccc2c(ccn2Cc2ccc(-c3ccc(CN4CCOCC4)cc3)cc2)c1 [Example 1-37, 5-methyl-1-(1-((4′-(morpholinomethyl)-[1,1′-biphenyl]-4-yl)methyl)-1H-indol-5-yl)-1H-pyrazole-3-carboxamide] | 0.075 | 0.206 |  | 
2 | Cc1cc(C(N)=O)nn1-c1ccc2c(ccn2Cc2ccc(C3=C[C@H]4CNC[C@H]4C3)cc2)c1 (racemic) [Example 24, (cis)-1-(1-(4-(1,2,3,3a,4,6a-hexahydrocyclopenta[c]pyrrol-5-yl)benzyl)-1H-indol-5-yl)-5-methyl-1H-pyrazole-3-carboxamide] | 0.381 | 1.2 |  | 
3 | Cc1cc(C(N)=O)nn1-c1ccc2c(ccn2Cc2ccc(C3=C[C@H]4CN(C)C[C@H]4C3)cc2)c1 (racemic) [Example 25, (cis)-5-methyl-1-(1-(4-(2-methyl-1,2,3,3a,4,6a-hexahydrocyclopenta[c]pyrrol-5-yl)benzyl)-1H-indol-5-yl)-1H-pyrazole-3-carboxamide] | 0.215 | 1.12 |  | 
4 | COCCCc1cn(Cc2ccc(-c3ccc(S(C)(=O)=O)cc3)cc2)c2ccc(-n3nc(C(N)=O)cc3C)cc12 [Example 23, 1-(3-(3-methoxypropyl)-1-((4′-(methylsulfonyl)-[1,1′-biphenyl]-4-yl)methyl)-1H-indol-5-yl)-5-methyl-1H-pyrazole-3-carboxamide] | 0.056 | 0.173 |  | 
5 | Cc1cc(C(N)=O)nn1-c1ccc2c(ccn2Cc2ccc(-c3ccc(CN)cc3)cc2)c1 [Example 1-34, 1-(1-((4′-(aminomethyl)-[1,1′-biphenyl]-4-yl)methyl)-1H-indol-5-yl)-5-methyl-1H-pyrazole-3-carboxamide] | 0.248 | 0.743 |  | 
6 | Cc1cc(C(N)=O)nn1-c1ccc2c(ccn2Cc2ccc(N3CCN(C)CC3)cc2)c1 [Example 11-2, 5-methyl-1-(1-(4-(4-methylpiperazin-1-yl)benzyl)-1H-indol-5-yl)-1H-pyrazole-3-carboxamide] | 0.341 | 1.06 |  | 
7 | Cc1cn(Cc2ccc([C@@H]3C[C@@H]4CN(C)C[C@@H]4C3)cc2)c2ccc(-n3nc(C(N)=O)cc3C)cc12 [Example 43, 5-Methyl-1-(3-methyl-1-(4-((3aR,5r,6aS)-2-methyloctahydrocyclopenta[c]pyrrol-5-yl)benzyl)-1H-indol-5-yl)-1H-pyrazole-3-carboxamide] | 0.215 | 0.74 |  | 
8 | Cc1cc(C(N)=O)nn1-c1ccc2c(ccn2Cc2ccc(-c3ccc4cn(C)nc4c3)cc2)c1 [Example 1-10, 5-methyl-1-(1-(4-(2-methyl-2H-indazol-6-yl)benzyl)-1H-indol-5-yl)-1H-pyrazole-3-carboxamide] | 0.072 | 0.234 |  | 
9 | Cc1cc(C(N)=O)nn1-c1ccc2c(ccn2Cc2ccc(CC3CCN(C)C3)cc2)c1 (racemic) [Example 31, rac-5-methyl-1-(1-(4-((1-methylpyrrolidin-3-yl)methyl)benzyl)-1H-indol-5-yl)-1H-pyrazole-3-carboxamide] | 0.35 | 0.747 |  | 
10 | Cc1cc(C(N)=O)nn1-c1ccc2c(ccn2Cc2ccc([C@@H]3C[C@@H]4CN(C)C[C@@H]4C3)cc2)c1 [Example 26-1, 5-methyl-1-(1-(4-((3aR,5r,6aS)-2-methyloctahydrocyclopenta[c]pyrrol-5-yl)benzyl)-1H-indol-5-yl)-1H-pyrazole-3-carboxamide] | 0.095 | 0.314 |  | 
11 | Cc1cc(C(N)=O)nn1-c1ccc2c(ccn2Cc2ccc(C3=CCN(C)CC3C)cc2)c1 (single isomer, unassigned) [Example 17-2, 1-(1-(4-(1,3-dimethyl-1,2,3,6-tetrahydropyridin-4-yl)benzyl)-1H-indol-5-yl)-5-methyl-1H-pyrazole-3-carboxamide] |  |  | 0.047 | 0.123
